Tests used:
[1] = Vial study: influence of humidity in a closed container on binary mixtures of losartan potassium form X; type: physicochemical
Method: Storage conditions: Vial study—influence of humidity in a closed container (simulation of packaging)
Testing mixtures are put into vials, exposed to 60% humidity for 18 hours, then closed with rubber stoppers and stored in a thermostatically controlled chamber at temperature of 25° C. (±2° C.) and 60% (±5%) relative humidity.
(§1) Mixtures are tested for up to 5 days in open petri dishes and up to 4 and 9 days in vials, and the following parameters were analysed at intervals of a few days or until the occurrence of significant change: appearance, […], conversion of a polymorph form (detected using powder X-ray diffraction spectroscopy and expressed as the amount of crystalline or amorphous phase different from the starting polymorph).

[2] = Open dish study: constant influence of humidity on binary mixtures of losartan potassium form X; type: physicochemical; settings: 5 days, 25° C., 60% relative humidity
Method: Storage conditions: Open dish study—constant influence of humidity Testing mixtures are put into open petri dishes and stored in a thermostatically controlled chamber at a temperature of 25° C. (±2° C.) and 60% (±5%) relative humidity
as §1

[3] = vial, 4 days, exposed to 60% humidity 18 hours, closed, 25° C., 60% relative humidity
[4] = vial, 9 days, exposed to 60% humidity 18 hours, closed, 25° C., 60% relative humidity

Appearance ([1]; Initial state): white powder
Form conversion (amount of crystalline or amorphous phase different from the starting polymorph, XRPD) ([1]; Initial state): 0%
Loss on drying ([1]; Initial state): 0.08%
Appearance [1, 3]: white slightly
Form conversion (amount of crystalline or amorphous phase different from the starting polymorph, XRPD) [1, 3]: 5%
Loss on drying [1, 3]: 0.52%
Appearance [1, 4]: white slightly
Form conversion (amount of crystalline or amorphous phase different from the starting polymorph, XRPD) [1, 4]: 100%
Appearance [2]: white slightly
Form conversion (amount of crystalline or amorphous phase different from the starting polymorph, XRPD) [2]: 10%
Loss on drying [2]: 0.93%
SMILES: CCCCc1nc(Cl)c(CO)n1Cc1ccc(-c2ccccc2-c2nnn[n-]2)cc1.[K+] [Not stabilized API, potassium salt of losartan]
